{
  "source": "patent US9476030B2",
  "about": "“Self-renewing endodermal progenitor lines generated from human pluripotent stem cells and methods of use thereof” (The Children's Hospital of Philadelphia, priority 2011, dated 2016)",
  "assay_type_in_all_cases": "cell-based, human",
  "key": {"H9-EP cells [1]": {"tested_on": "H9-EP cells", "experiment": "EP cell maintenance: cell number / cell growth under various media conditions", "details": "for proliferation of EP cells (total cell number after 7-day expansion): FIG. 4B", "method": "(§1) FIG. 4. Cytokine Requirements and Critical Signaling Pathways for EP Cell Maintenance and Differentiation. […] In each condition, one of the four cytokines was omitted or inhibitors of signaling pathways were added. The H9-EP cell line was grown for 1 week in optimal EP Basic Media (BASIC) or in the absence of BMP4, or bFGF or VEGF. (A) Flow cytometric analyses of SOX17 versus PDX1, or SOX17 versus FOXA1 are shown. […] (C-D) To evaluate the role of TGF signaling in EP cell maintenance and differentiation, the small molecule inhibitor SB431542 was added to EP media. (C) H9-EP cells were cultured in normal EP media (BASIC) or in EP media supplemented with SB431542 (6 M) either in the presence (+SB) or the absence of BMP4 (−BMP+SB). Cells were harvested at day 6. Flow cytometric analyses of SOX17 versus FOXA1 are shown. (D) H9-EP cells were cultured in the presence (SB, red circles) or the absence (BASIC, blue squares) of SB431542 for 3 passages and cell growth analyzed by cell counts at each passage. […] Cells were harvested at day 14 of differentiation, and were compared to those derived from SB-untreated group (BASIC). Flow cytometric analyses of C-peptide versus Glucagon are shown.\nCells were fed every two days, and were split at 1×10^6/58 cm^2 every 6 days by trypsinization. The small molecule inhibitors PD0325901 (Sebolt-Leopold et al., 2004; Ying et al., 2008), PD173074 (Mohammadi et al., 1998) and SB431542 (Laping et al, 2002; Inman et al., 2002) were purchased from Cayman Chemicals and Stemgent, respectively."}, "H9-EP cells [2]": {"tested_on": "H9-EP cells", "experiment": "Flow cytometric analysis of SOX17 / PDX1 / FOXA1 in EP cells under various media conditions", "parameters": "SOX17 expression in EP cells: dose or concentration left out as unconfirmed", "method": "as §1\nSingle cell suspensions were obtained by dissociating day 5 transient endoderm, EP cell cultures, or EP cell differentiation cultures with 0.25% trypsin at 37° C. for 3-5 minutes. Cell surface antigen staining was performed in IMDM with 10% fetal calf serum. For intracellular staining, cells were fixed with 1.6% paraformaldehyde (Electron Microscopy Sciences) at 37 C for 20 minutes, and then washed twice with PBS+1% BSA. The fixed cells were permeabilized and stained in 1× Permeabilization Wash Buffer (BioLegend, 421002). The stained cells were analyzed with the BD FACS Canto II Flow Cytometer (BD Biosciences), and the data was analyzed using the Flowjo software (TreeStar). The sources and concentrations of primary, secondary antibodies and isotype controls are listed below."}, "H9-EP and iPS2-EP cells": {"tested_on": "H9-EP and iPS2-EP cells", "experiment": "Pancreatic differentiation of EP cells after culture with SB431542", "details": "EP cells cultured with SB431542 for 5 days, then differentiated, day 14, FIG. 4E", "method": "FIG. 4. Cytokine Requirements and Critical Signaling Pathways for EP Cell Maintenance and Differentiation. […] In each condition, one of the four cytokines was omitted or inhibitors of signaling pathways were added. The H9-EP cell line was grown for 1 week in optimal EP Basic Media (BASIC) or in the absence of BMP4, or bFGF or VEGF. (A) Flow cytometric analyses of SOX17 versus PDX1, or SOX17 versus FOXA1 are shown. […] (C-D) To evaluate the role of TGF signaling in EP cell maintenance and differentiation, the small molecule inhibitor SB431542 was added to EP media. […] Cells were harvested at day 6. Flow cytometric analyses of SOX17 versus FOXA1 are shown. […] Cells were harvested at day 14 of differentiation, and were compared to those derived from SB-untreated group (BASIC). Flow cytometric analyses of C-peptide versus Glucagon are shown. […] (2011), was modified by omitting the first step, and by adding-secretase inhibitor X (Calbiochem, 2 M) from day 8 to day 12 of differentiation, as well as by adding human insulin (Sigma, 800 pM) and nicotinamide (Sigma, 10 mM) from day 10 and onwards. […] Mouse Wnt3a was supplemented to the step 2 media at 3 ng/ml. From day 10 and onwards, the medium was alternated every day between high dextrose (60 mM) and low dextrose (20 mM). […] Insulin secretion was calculated based on the total cell number and the percentage of c-peptide+ cells of each experiment. […]"}, "[3]": {"details": "inhibitor of FGF/Ras/MEK pathway added to EP media"}, "[4]": {"details": "withdrawal of the cytokine from EP basic media"}, "[5]": {"details": "withdrawal of the cytokine, within one week, FIG. 4A"}},
  "data": [
    {"compound": "O=C(NOC[C@H](O)CO)c1ccc(F)c(F)c1Nc1ccc(I)cc1F", "note": "[PD0325901]", "values": [
      {"measurement": "proliferation of EP cells (total cell number after 7-day expansion)", "setting": "H9-EP cells [1]; [3]", "result": "reduced proliferation dramatically"}
    ]},
    {"compound": "EGF: human cytokine in EP basic medium (10 ng/ml) (NSDSECPLSHDGYCLHDGVCMYIEALDKYACNCVVGYIGERCQYRDLKWWELR; UniProt P01133 971-1023, looked up)", "values": [
      {"measurement": "proliferation of EP cells (total cell number after 7-day expansion)", "setting": "H9-EP cells [1]; [4]", "result": "significant decrease in proliferation"}
    ]},
    {"compound": "CCN(CC)CCCCNc1ncc2cc(-c3cc(OC)cc(OC)c3)c(NC(=O)NC(C)(C)C)nc2n1", "note": "[PD173074]", "values": [
      {"measurement": "proliferation of EP cells (total cell number after 7-day expansion)", "setting": "H9-EP cells [1]; [3]", "result": "reduced proliferation dramatically"}
    ]},
    {"compound": "BMP4: human cytokine in EP basic medium (50 ng/ml)", "values": [
      {"measurement": "PDX1 expression in EP cells", "setting": "H9-EP cells [2]; [5]", "result": "up-regulation of PDX1"},
      {"measurement": "SOX17 expression in EP cells", "setting": "H9-EP cells [2]; [5]", "result": "almost complete loss of SOX17 expression"}
    ]},
    {"compound": "NC(=O)c1ccc(-c2nc(-c3ccc4c(c3)OCO4)c(-c3ccccn3)[nH]2)cc1", "note": "[SB431542]", "values": [
      {"measurement": "proliferation of EP cells (relative cell growth over 3 passages)", "setting": "H9-EP cells [1]; SB431542 added to EP media, FIG. 4D", "result": "drastically suppressed proliferation"},
      {"measurement": "differentiation of EP cells into pancreatic β-cells", "setting": "H9-EP and iPS2-EP cells", "result": "inhibited differentiation into pancreatic β-cells"},
      {"measurement": "SOX17 expression in EP cells", "setting": "H9-EP cells [2]; EP media supplemented with SB431542, harvested at day 6, FIG. 4C", "result": "completely abolished SOX17 expression"}
    ]},
    {"compound": "bFGF: human cytokine in EP basic medium (10 ng/ml)", "values": [
      {"measurement": "proliferation of EP cells (total cell number after 7-day expansion)", "setting": "H9-EP cells [1]; [4]", "result": "reduced proliferation dramatically"}
    ]},
    {"compound": "VEGF", "values": [
      {"measurement": "proliferation of EP cells (total cell number after 7-day expansion)", "setting": "H9-EP cells [1]; [4]", "result": "significant decrease in proliferation"}
    ]}
  ]
}
